Measured values as given in ChEMBL document CHEMBL1201862, “PubChem BioAssay data set” (2004).
The source made the active and inactive calls.

Assays:
P388/ADR = test: cells; type: functional; settings: Mus musculus
SN12K1 = test: cells; type: functional; settings: Homo sapiens
P388 = test: cells; type: functional; settings: Mus musculus
BJ [1] = test: BJ-TERT fibroblast viability loss – cell-based, RAS-independent, luminescence, dose response (AID 1933); type: functional; settings: Homo sapiens
BJ [2] = test: cells; type: functional, cell-based; settings: Homo sapiens
BJ [3] = test: BJ-TERT-LT-ST fibroblast viability loss – cell-based, RAS-independent, luminescence, dose response (AID 1935); type: functional; settings: Homo sapiens;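 note: BJ fibroblasts immortalized with TERT plus LT and ST oncogenes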
[4] = DRD fibroblast viability loss – cell-based, non-viral oncogenic, luminescence, dose response (AID 1934); type: functional; settings: Homo sapiens
BJ [5] = test: growth inhibition of engineered Ras-driven BJ cells – cell-based, alamar blue fluorescence, cherrypicked samples, dose response (AID 2631); type: functional; settings: Homo sapiens;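 note: confirmatory dose-response assay in RAS-dependent BJ fibroblasts engineered with TERT, LT and ST, with cytotoxicity read by fluorescence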
INS1 = test: INS-1E survival protection against cytokine death – cell-based, luminescence, retest, dose response (AID 449756); type: functional; settings: Rattus norvegicus;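 note: cell death triggered by IL-1 beta plus TNF-alpha plus IFN-gamma mixture; protective hits raise ATP signal compared with cytokine alone wells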
Cytochrome P450 2C19 = Cytochrome P450 2C19 (Homo sapiens, UniProt P33261); test: Cytochrome panel assay with activity outcomes. Panel member name: p450-cyp2c19 Compounds with AC50 equal or less than 10 uM are considered active; type: functional; settings: read-out: AC50
Cytochrome P450 3A4 = Cytochrome P450 3A4 (Homo sapiens, UniProt P08684);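 note: CYP3A4 tested as one member of a cytochrome P450 panel screen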
[6] = Luminescence Cell-Based Dose Confirmation HTS to Identify Activators of 5'UTR Stem-Loop Driven Alpha-Synuclein mRNA Translation in H4 Neuroglioblastoma Cells. [Related pubchem assays: 1829 (Project Summary), 1814 (Primary HTS)]; type: functional
[7] = Luminescence Cell-Based Dose Response HTS to Identify Activators of Luciferase Translation or Activity in H4 […] Cells. [Related pubchem assays: 1829 (Project Summary), 1814 (Primary HTS)]; type: functional
H4 = test: Luminescence Cell-Based Dose Response HTS to Identify Activators of 5'UTR Stem-Loop Driven Prion Protein mRNA Translation in H4 Neuroglioblastoma Cells. [Related pubchem assays: 1829 (Project Summary), 1814 (Primary HTS)]; type: functional; settings: Homo sapiens
[8] = Luminescence Cell-Based Dose Retest to Confirm Inhibitors of Cancer Stem Cells. [Related pubchem assays (depositor defined):AID2717, AID2721]; type: functional; settings: Homo sapiens
[9] = biological target: T1, Microphthalmia-associated transcription factor (Homo sapiens, UniProt O75030); test: reducers of TRPM1 reporter luminescence, concentration series – cell-based, SK-MEL-5, cherry-picked, set 3, MITF inhibitor project, dose response (AID 493073); type: functional;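 note: SK-MEL-5 melanoma cells with luciferase driven by the MITF target TRPM1 promoter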
T1 sequence (O75030 whole entry): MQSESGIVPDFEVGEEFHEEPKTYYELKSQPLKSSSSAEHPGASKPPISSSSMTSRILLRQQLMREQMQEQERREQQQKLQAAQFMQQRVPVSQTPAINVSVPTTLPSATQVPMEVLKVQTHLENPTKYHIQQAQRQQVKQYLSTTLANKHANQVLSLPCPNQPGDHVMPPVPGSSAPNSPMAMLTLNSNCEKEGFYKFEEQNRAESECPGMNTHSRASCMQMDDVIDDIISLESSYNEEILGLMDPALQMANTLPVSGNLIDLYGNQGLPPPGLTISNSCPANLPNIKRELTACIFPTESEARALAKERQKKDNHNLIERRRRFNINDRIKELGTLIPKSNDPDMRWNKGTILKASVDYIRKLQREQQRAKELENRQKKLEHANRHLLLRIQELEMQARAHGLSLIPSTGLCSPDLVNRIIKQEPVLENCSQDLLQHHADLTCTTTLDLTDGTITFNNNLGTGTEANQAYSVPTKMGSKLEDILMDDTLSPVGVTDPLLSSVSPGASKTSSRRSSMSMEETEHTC

[10] = reduction of Shn3 3'UTR-driven luciferase in osteoblasts – cell-based, Clone20 osteoblasts, firefly luciferase, cherry-picked, dose response (AID 624132); type: functional;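 note: firefly luciferase luminescence from reporter carrying the Shn3 3'UTR in osteoblasts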
[11] = biological target: T2, E3 ubiquitin-protein ligase XIAP (Homo sapiens, UniProt P98170); test: Counter Screen using XIAP-Bir3 for Chemical Antagonists of Bir1/2 domains of IAP-family anti-apoptotic proteins. [Related pubchem assays (depositor defined):AID1018, AID1449, AID1514, AID1638, AID1749, AID1750, AID488957, AID488963]
[12] = biological target: T2, E3 ubiquitin-protein ligase XIAP; test: small molecules displacing peptide from XIAP – biochemical, IAP family, fluorescence polarization (AID 1018); type: functional
[13] = biological target: 26S proteasome non-ATPase regulatory subunit 14 (Homo sapiens, UniProt O00487); test: inhibition of proteasome subunit RPN11 – biochemical, fluorescence polarization, uHTS hits, confirmation (AID 602368); type: functional
[14] = biological target: 72 kDa type IV collagenase (Homo sapiens, UniProt P08253); test: Dose Response validation of uHTS RPN11 inhibitor hits using a MMP-2 Fluorescence assay.; type: functional
Prothrombin = Prothrombin (Bos taurus, UniProt P00735); test: thrombin protease inhibitors – biochemical, fluorescence polarization, uHTS hits, dose response (AID 602369); type: functional
Cytochrome P450 2D6 = Cytochrome P450 2D6 (Homo sapiens, UniProt P10635);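 note: CYP2D6 member of a cytochrome P450 panel assay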
Cytochrome P450 1A2 = biological target: T3, Cytochrome P450 1A2 (Homo sapiens, UniProt P05177);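 note: PubChem cytochrome P450 panel assay, CYP1A2 panel member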
T3 sequence (P05177 whole entry): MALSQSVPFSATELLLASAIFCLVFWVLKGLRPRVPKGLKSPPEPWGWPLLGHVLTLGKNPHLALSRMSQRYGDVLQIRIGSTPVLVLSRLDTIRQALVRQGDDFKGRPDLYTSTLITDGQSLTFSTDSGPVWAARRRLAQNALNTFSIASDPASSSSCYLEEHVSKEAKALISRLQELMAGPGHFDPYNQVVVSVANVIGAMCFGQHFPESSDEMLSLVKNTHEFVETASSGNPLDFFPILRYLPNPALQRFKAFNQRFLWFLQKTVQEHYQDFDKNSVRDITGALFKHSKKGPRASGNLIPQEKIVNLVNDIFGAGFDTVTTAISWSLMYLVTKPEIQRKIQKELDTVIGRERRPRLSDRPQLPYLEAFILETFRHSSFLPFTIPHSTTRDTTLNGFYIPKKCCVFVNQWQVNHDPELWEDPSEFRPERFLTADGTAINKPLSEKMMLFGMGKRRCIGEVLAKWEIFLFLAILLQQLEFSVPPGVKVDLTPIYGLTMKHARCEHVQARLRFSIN

Hexokinase = biological target: T4, Hexokinase (Trypanosoma brucei, UniProt Q38C41); test: Confirmation assay for inhibitors of Trypanosoma brucei hexokinase 1-Analogue-first series. [Related pubchem assays (depositor defined):AID1430, AID1632, AID2516, AID2560, AID2579, AID2600, AID449725, AID492951]; type: functional
T4 sequence (Q38C41 whole entry): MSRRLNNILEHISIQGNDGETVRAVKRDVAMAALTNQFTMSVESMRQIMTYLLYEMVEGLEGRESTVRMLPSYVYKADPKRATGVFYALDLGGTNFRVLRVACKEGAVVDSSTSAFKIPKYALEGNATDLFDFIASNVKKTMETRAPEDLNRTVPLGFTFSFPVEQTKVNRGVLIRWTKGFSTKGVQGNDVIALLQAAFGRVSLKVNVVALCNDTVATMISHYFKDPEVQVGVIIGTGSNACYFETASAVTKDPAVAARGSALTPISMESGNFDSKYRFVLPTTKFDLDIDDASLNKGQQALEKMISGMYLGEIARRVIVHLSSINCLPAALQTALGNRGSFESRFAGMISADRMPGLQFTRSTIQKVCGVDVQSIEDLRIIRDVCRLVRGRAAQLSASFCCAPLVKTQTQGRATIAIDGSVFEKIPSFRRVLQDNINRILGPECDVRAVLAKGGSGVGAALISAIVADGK

[15] = Trypanosoma cruzi growth suppression in host cells – NIH3T3 host cells, beta-gal luminescence, confirmation (AID 2044); type: functional, cell-based;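 note: intracellular parasites grown in NIH/3T3 mouse fibroblasts as host cells; luminescent beta-galactosidase reporter signal from transgenic T. cruzi replicating inside host cells; inhibitors lower the luminescence signal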
[16] = NIH3T3 cell viability loss – ATP luminescence, mouse fibroblasts, counter-screen, dose response (AID 2010); type: functional, cell-based;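 note: cells exposed to compound for about 90 hours before reading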

Chain of Cytochrome P450 3A4 (P08684 whole entry): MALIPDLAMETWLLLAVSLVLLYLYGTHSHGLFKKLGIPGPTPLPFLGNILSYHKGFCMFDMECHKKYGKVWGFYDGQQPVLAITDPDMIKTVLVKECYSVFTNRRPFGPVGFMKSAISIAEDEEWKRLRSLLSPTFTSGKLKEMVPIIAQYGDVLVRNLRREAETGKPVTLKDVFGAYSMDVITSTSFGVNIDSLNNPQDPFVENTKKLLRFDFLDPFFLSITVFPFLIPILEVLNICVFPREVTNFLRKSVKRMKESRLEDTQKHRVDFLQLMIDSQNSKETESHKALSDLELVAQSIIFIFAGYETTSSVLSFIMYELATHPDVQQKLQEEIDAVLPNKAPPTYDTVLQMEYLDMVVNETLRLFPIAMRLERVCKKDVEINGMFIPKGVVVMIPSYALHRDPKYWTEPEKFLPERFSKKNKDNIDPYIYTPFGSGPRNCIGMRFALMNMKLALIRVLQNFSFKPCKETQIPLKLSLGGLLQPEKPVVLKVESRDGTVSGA
T2 sequence (P98170 whole entry): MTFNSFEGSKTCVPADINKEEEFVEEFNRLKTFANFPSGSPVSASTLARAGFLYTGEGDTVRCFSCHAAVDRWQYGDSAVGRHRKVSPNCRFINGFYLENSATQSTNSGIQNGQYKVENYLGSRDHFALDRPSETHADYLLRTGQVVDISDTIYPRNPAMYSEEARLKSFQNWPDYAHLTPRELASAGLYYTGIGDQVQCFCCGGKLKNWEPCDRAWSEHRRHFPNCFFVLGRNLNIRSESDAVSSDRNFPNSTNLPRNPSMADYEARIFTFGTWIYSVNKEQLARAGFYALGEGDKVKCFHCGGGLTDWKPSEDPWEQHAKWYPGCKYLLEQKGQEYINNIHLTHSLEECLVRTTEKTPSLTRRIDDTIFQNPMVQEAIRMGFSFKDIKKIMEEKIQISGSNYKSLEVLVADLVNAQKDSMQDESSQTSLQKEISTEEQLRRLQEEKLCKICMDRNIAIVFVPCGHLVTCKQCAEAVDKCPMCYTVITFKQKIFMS
Chain of 26S proteasome non-ATPase regulatory subunit 14 (O00487 whole entry): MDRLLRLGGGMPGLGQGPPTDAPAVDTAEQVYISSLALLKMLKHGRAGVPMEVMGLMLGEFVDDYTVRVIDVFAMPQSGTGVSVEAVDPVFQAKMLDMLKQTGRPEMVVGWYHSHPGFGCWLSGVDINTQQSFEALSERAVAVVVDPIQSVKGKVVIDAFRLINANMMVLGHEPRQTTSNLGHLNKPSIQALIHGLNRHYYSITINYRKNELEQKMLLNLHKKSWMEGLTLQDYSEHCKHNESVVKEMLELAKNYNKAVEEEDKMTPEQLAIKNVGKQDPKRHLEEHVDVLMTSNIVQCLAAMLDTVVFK
Chain of 72 kDa type IV collagenase (P08253 whole entry): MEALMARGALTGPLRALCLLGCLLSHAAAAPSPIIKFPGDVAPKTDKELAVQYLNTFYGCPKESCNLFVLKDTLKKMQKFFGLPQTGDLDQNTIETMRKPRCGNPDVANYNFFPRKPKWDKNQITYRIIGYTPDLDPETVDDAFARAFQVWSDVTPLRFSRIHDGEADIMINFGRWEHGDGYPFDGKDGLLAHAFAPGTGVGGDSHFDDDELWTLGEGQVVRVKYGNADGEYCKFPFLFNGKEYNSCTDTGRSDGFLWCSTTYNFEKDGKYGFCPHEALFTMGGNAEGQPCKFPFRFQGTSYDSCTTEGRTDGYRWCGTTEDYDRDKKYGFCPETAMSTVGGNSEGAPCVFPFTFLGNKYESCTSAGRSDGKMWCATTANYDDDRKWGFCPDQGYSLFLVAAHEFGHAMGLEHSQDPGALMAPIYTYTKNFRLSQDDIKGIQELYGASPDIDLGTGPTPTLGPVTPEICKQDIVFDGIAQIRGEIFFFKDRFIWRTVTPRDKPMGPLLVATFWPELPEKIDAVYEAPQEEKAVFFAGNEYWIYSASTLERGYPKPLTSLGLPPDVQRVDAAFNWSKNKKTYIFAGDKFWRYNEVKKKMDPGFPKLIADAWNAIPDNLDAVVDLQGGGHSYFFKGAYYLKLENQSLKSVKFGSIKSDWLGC
Chain of Cytochrome P450 2D6 (P10635 whole entry): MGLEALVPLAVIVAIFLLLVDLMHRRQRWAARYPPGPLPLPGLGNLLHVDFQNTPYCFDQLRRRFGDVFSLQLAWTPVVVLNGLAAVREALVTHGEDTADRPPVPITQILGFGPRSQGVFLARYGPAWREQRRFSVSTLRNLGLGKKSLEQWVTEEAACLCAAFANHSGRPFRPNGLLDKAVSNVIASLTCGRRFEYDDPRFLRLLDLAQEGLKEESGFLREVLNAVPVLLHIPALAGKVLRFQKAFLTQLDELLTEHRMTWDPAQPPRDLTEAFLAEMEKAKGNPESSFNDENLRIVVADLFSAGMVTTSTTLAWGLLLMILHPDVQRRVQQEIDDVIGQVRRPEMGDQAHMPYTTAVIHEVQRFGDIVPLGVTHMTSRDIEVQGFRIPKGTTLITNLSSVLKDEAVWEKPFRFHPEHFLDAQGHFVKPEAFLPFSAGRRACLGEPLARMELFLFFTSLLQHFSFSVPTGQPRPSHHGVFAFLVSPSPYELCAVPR
Chain of Cytochrome P450 2C19 (P33261 whole entry): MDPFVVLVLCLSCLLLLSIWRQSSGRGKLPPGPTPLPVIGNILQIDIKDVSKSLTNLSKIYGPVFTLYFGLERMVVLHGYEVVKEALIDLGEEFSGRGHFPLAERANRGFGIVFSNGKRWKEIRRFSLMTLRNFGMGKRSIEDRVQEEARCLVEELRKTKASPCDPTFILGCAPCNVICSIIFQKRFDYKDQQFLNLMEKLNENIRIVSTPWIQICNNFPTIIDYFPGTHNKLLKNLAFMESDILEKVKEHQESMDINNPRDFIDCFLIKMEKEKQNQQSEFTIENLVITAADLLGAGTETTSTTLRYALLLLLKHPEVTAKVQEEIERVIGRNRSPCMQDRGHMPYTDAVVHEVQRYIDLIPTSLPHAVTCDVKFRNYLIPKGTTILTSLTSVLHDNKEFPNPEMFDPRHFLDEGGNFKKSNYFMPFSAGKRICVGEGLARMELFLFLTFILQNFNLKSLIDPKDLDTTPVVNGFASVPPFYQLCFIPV

With `C/C(=N\NC(=S)N1CC2CCC(CC2)C1)c1nccs1` as the compound, how does the GI50 (P388/ADR) read?
The GI50 was < 0.01 µM (active).

And the GI50 (SN12K1)?
The GI50 was < 0.01 µM (active).

What about the GI50 (P388) of the same compound?
Its GI50 is < 0.01 µM (active).

What does the source list for `O=C(NCc1cccnc1)c1ccc(NC(=O)c2ccc([N+](=O)[O-])cc2)cc1`?
EC50 (BJ [1]): > 150 µM (not active); EC50 (BJ [2]): 15.9 µM (inconclusive); EC50 (BJ [3]): > 150 µM (not active); EC50 [4]: > 150 µM (not active); EC50 (BJ [5]): > 66.7 µM (inactive); AC50 (INS1): < 0.195 µM (active)

Which results are given for `O=C(C1CCN(S(=O)(=O)N2CCOCC2)CC1)N1CCN(Cc2ccccc2)CC1`?
AC50 (Cytochrome P450 2C19): 14.1 µM (inconclusive); AC50 (Cytochrome P450 3A4): inconclusive

With `CCN(CC)Cc1c(O)ccc2c1O/C(=C\C=C\c1ccccc1)C2=O` as the compound, how does the EC50 [6] read?
The EC50 was 16.5 µM (active).

And the EC50 [7]?
The EC50 was 29.6 µM (active).

What about the EC50 (BJ [1]) of the same compound?
Its EC50 is > 150 µM (not active).

And the EC50 (H4)?
The EC50 was > 120 µM (not active).

And the EC50 (BJ [2])?
Its EC50 is > 150 µM (not active).

What about the EC50 (BJ [3]) of the same compound?
Its EC50 is > 150 µM (inconclusive).

And the EC50 [4]?
Its EC50 is 55.7 µM (active).

What about the AC50 [8] of the same compound?
Its AC50 is 16.6 µM (active).

What about the AC50 [9] of the same compound?
The AC50 was 47.6 µM (active).

What about the EC50 (BJ [5]) of the same compound?
Its EC50 is > 133 µM (inactive).

And the AC50 (INS1)?
The AC50 was > 120 µM (inactive).

What about the AC50 [10] of the same compound?
Its AC50 is 1.96 µM (active).

With `Cc1cc(Cl)ccc1OCC(=O)Nc1ccccc1CO` as the compound, how does the IC50 [11] read?
The IC50 was > 100 µM (inactive).

And the IC50 [12]?
Its IC50 is > 100 µM (not active).

Which IC50 [13] does the source give for `CCOC(=O)NC(=O)/C(C#N)=C/c1ccc(N(C)C)cc1` here?
Its IC50 is 14.7 µM (active).

What about the IC50 [14] of the same compound?
Its IC50 is > 100 µM (inactive).

What about the IC50 (Prothrombin) of the same compound?
Its IC50 is 25.6 µM (active).

With `CN1CCN(c2ccc(NC(=S)NC(=O)c3cccc4ccccc34)cc2)CC1` as the compound, how does the AC50 [9] read?
The AC50 was 9 µM (active).

With `Cc1cc(C)cc(NC(=O)Nc2ccc3c(c2)N(C)C(=O)CS3)c1` as the compound, how does the IC50 [11] read?
The IC50 was > 100 µM (inactive).

What about the IC50 [12] of the same compound?
The IC50 was > 100 µM (not active).

Which GI50 (P388/ADR) does the source give for `Cc1c2ccnc(C(F)(F)F)c2cc2c1[nH]c1ccccc12` here?
The GI50 was 78.9 µM (inactive).

And the GI50 (SN12K1)?
The GI50 was 58.5 µM (inactive).

What about the GI50 (P388) of the same compound?
The GI50 was > 125 µM (inactive).

Which AC50 (Cytochrome P450 2D6) does the source give for `C#CCN[C@@H](C)Cc1ccccc1` here?
Its AC50 is 25.1 µM (inconclusive).

And the AC50 (Cytochrome P450 1A2)?
The AC50 was 15.8 µM (inconclusive).

What about the AC50 (Cytochrome P450 3A4) of the same compound?
Its AC50 is “inconclusive”.

With `COc1ccc(C(N)=NOC(=O)Cc2ccc(C)cc2)cc1` as the compound, how does the IC50 [11] read?
Its IC50 is > 100 µM (inactive).

What about the IC50 [12] of the same compound?
The IC50 was > 100 µM (not active).

What does the source list for `CC(O)C(O)C(N)CC=O` (centres undefined)?
GI50 (P388/ADR): > 500 µM (inactive); GI50 (SN12K1): > 500 µM (inactive); GI50 (P388): > 500 µM (inactive)

For `CCOC(=O)c1c(C)nc2c(c1-c1ccccc1)C(=O)CCC2`, which AC50 (Cytochrome P450 3A4) is on record?
Its AC50 is “inconclusive”.

For `O=C(CCl)NC(Cc1ccc(F)cc1)C(=O)O` (centres undefined), which GI50 (P388/ADR) is on record?
The GI50 was > 100 µM (inactive).

What about the GI50 (SN12K1) of the same compound?
Its GI50 is > 100 µM (inactive).

What about the GI50 (P388) of the same compound?
The GI50 was > 100 µM (inactive).

For `CC(C)C(=O)Nc1ccc(C(=O)NCc2cccnc2)cc1`, which EC50 (BJ [1]) is on record?
Its EC50 is > 150 µM (not active).

And the EC50 (BJ [2])?
Its EC50 is 3.86 µM (active).

And the EC50 (BJ [3])?
Its EC50 is 19.4 µM (inconclusive).

And the EC50 [4]?
Its EC50 is > 150 µM (not active).

What about the EC50 (BJ [5]) of the same compound?
The EC50 was 18.9 µM (active).

Which IC50 [13] does the source give for `COc1ccccc1NC(=O)CCc1nc2sc3c(c2c(=O)[nH]1)CCCC3` here?
The IC50 was 33.1 µM (active).

What about the IC50 [14] of the same compound?
The IC50 was > 100 µM (inactive).

What about the IC50 (Prothrombin) of the same compound?
The IC50 was 47.9 µM (active).

Which IC50 (Hexokinase) does the source give for `COc1ccc(S(=O)(=O)Nc2cc(Cl)ccc2C(=O)O)cc1` here?
The IC50 was > 25 µM (inactive).

What does the source list for `CN(C)CCCn1c(-c2ccccc2)nc(=S)c2c1CCCC2`?
IC50 [11]: > 100 µM (inactive); IC50 [12]: > 100 µM (not active); EC50 [15]: 0.697 µM (active); EC50 [16]: > 60 µM (not active)
